# From patent US20100298141A1, “SUBSTITUTED PYRIDINE N-OXIDE HERBICIDES” (E. I. DU PONT DE NEMOURS AND COMPANY, priority 2007, published 2010)
# Legend:
# morningglory = test: Test A pre-/postemergence greenhouse test; type: in vivo, Ipomoea spp.; settings: for Plant response rating, Morningglory: 0 to 100 scale where 0 is no effect and 100 is complete control; for Morningglory plant response rating: 0 to 100 scale
# In short: (§1)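 Herbicidal effect is a visual injury score given about ten days post-treatment by comparison with untreated controls. Preemergence plots received a directed spray onto sown loam–sand soil; postemergence plants, at the one- to two-leaf stage and 2–10 cm tall, were sprayed at the same time.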
# rice = test: Test C flooded paddy test; type: in vivo, Oryza sativa; settings: Flood
# In short: (§2)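 Test compounds are applied straight into paddy water held 3 cm above the soil surface, with that flood maintained for the whole test. After 13 to 15 days in the greenhouse, each species is scored visually relative to controls.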
# crabgrass = test: Test A pre-/postemergence greenhouse test; type: in vivo, Digitaria sanguinalis; settings: for Plant response rating, Crabgrass, Large: 0 to 100 scale where 0 is no effect and 100 is complete control; for Crabgrass, Large plant response rating: 0 to 100 scale
# In short: as §1
# corn = test: Test A pre-/postemergence greenhouse test; type: in vivo, Zea mays; settings: for Plant response rating, Corn: 0 to 100 scale where 0 is no effect and 100 is complete control; for Corn plant response rating: 0 to 100 scale
# In short: as §1
# velvetleaf = test: Test A pre-/postemergence greenhouse test; type: in vivo, Abutilon theophrasti; settings: for Plant response rating, Velvetleaf: 0 to 100 scale where 0 is no effect and 100 is complete control; for Velvetleaf plant response rating: 0 to 100 scale
# In short: as §1
# duck salad = test: Test C flooded paddy test; type: in vivo, Heteranthera limosa; settings: Flood
# In short: as §2
# barnyardgrass [1] = test: Test C flooded paddy test; type: in vivo, Echinochloa crus-galli; settings: Flood
# In short: as §2
# giant foxtail = test: Test A pre-/postemergence greenhouse test; type: in vivo, Setaria faberi; settings: for Plant response rating, Foxtail, Giant: 0 to 100 scale where 0 is no effect and 100 is complete control; for Foxtail, Giant plant response rating: 0 to 100 scale
# In short: as §1
# redroot pigweed = test: Test A pre-/postemergence greenhouse test; type: in vivo, Amaranthus retroflexus; settings: for Plant response rating, Pigweed: 0 to 100 scale where 0 is no effect and 100 is complete control; for Pigweed plant response rating: 0 to 100 scale
# In short: as §1
# umbrella sedge = test: Test C flooded paddy test; type: in vivo, Cyperus difformis; settings: Flood
# In short: as §2
# wheat = test: Test A pre-/postemergence greenhouse test; type: in vivo, Triticum aestivum; settings: for Plant response rating, Wheat: 0 to 100 scale where 0 is no effect and 100 is complete control; for Wheat plant response rating: 0 to 100 scale
# In short: as §1
# barnyardgrass [2] = test: Test A pre-/postemergence greenhouse test; type: in vivo, Echinochloa crus-galli; settings: for Plant response rating, Barnyardgrass: 0 to 100 scale where 0 is no effect and 100 is complete control; for Barnyardgrass plant response rating: 0 to 100 scale
# In short: as §1
# [3] = Postemergence, 500 g ai/ha, 0 is no effect, 100 is complete control
# [4] = Preemergence, 125 g ai/ha, 0 no effect, 100 complete control
# [5] = 31 g ai/ha, scale 0 to 100 (0 no effect, 100 complete control)
# [6] = 62 g ai/ha, scale 0 to 100, 0 no effect, 100 complete control, 13 to 15 days
# [7] = 125 g ai/ha, scale 0 to 100, 0 no effect, 100 complete control, 13 to 15 days
# [8] = 250 g ai/ha, scale 0 to 100, 0 no effect, 100 complete control, 13 to 15 days
# [9] = Preemergence, 500 g ai/ha, 0 no effect, 100 complete control
# [10] = 62 g ai/ha, scale 0 to 100 (0 no effect, 100 complete control)
compound,measurement,setting,value
Cn1nc(C(F)(F)F)c(CS(=O)(=O)c2ccc(F)c[n+]2[O-])c1Cl [Compound 53],"Plant response rating, Morningglory","morningglory; Postemergence, 125 g ai/ha",20
same,Morningglory plant response rating,morningglory; [3],30
same,Morningglory plant response rating,morningglory; [4],30
same,"Plant response rating, Morningglory","morningglory; Preemergence, 500 g ai/ha",70
same,"Plant response rating, Rice",rice; [5],0
same,"Plant response rating, Rice",rice; [6],25
same,"Plant response rating, Rice",rice; [7],60
same,"Plant response rating, Rice",rice; [8],75
same,"Plant response rating, Crabgrass, Large","crabgrass; Postemergence, 125 g ai/ha",40
same,"Crabgrass, Large plant response rating",crabgrass; [3],80
same,"Crabgrass, Large plant response rating",crabgrass; [4],60
same,"Plant response rating, Crabgrass, Large","crabgrass; Preemergence, 500 g ai/ha",90
same,"Plant response rating, Corn","corn; Postemergence, 125 g ai/ha",0
same,Corn plant response rating,corn; [3],0
same,Corn plant response rating,corn; [4],0
same,"Plant response rating, Corn","corn; Preemergence, 500 g ai/ha",0
same,"Plant response rating, Velvetleaf","velvetleaf; Postemergence, 125 g ai/ha",0
same,Velvetleaf plant response rating,velvetleaf; [3],0
same,Velvetleaf plant response rating,velvetleaf; [4],0
same,"Plant response rating, Velvetleaf","velvetleaf; Preemergence, 500 g ai/ha",0
same,"Plant response rating, Ducksalad",duck salad; [5],20
same,"Plant response rating, Ducksalad",duck salad; [6],60
same,"Plant response rating, Ducksalad",duck salad; [7],100
same,"Plant response rating, Ducksalad",duck salad; [8],100
same,"Plant response rating, Barnyardgrass",barnyardgrass [1]; [5],0
same,"Plant response rating, Barnyardgrass",barnyardgrass [1]; [6],0
same,"Plant response rating, Barnyardgrass",barnyardgrass [1]; [7],60
same,"Plant response rating, Barnyardgrass",barnyardgrass [1]; [8],80
same,"Plant response rating, Foxtail, Giant","giant foxtail; Postemergence, 125 g ai/ha",80
same,"Foxtail, Giant plant response rating",giant foxtail; [3],90
same,"Foxtail, Giant plant response rating",giant foxtail; [4],60
same,"Plant response rating, Foxtail, Giant","giant foxtail; Preemergence, 500 g ai/ha",80
same,"Plant response rating, Pigweed","redroot pigweed; Postemergence, 125 g ai/ha",20
same,Pigweed plant response rating,redroot pigweed; [3],50
same,Pigweed plant response rating,redroot pigweed; [4],100
same,"Plant response rating, Pigweed","redroot pigweed; Preemergence, 500 g ai/ha",100
same,"Plant response rating, Sedge, Umbrella",umbrella sedge; [5],20
same,"Plant response rating, Sedge, Umbrella",umbrella sedge; [7],80
same,"Plant response rating, Sedge, Umbrella",umbrella sedge; [8],90
same,"Plant response rating, Wheat","wheat; Postemergence, 125 g ai/ha",0
same,Wheat plant response rating,wheat; [3],0
same,Wheat plant response rating,wheat; [4],0
same,"Plant response rating, Wheat","wheat; Preemergence, 500 g ai/ha",0
same,"Plant response rating, Barnyardgrass","barnyardgrass [2]; Postemergence, 125 g ai/ha",60
same,Barnyardgrass plant response rating,barnyardgrass [2]; [3],80
same,Barnyardgrass plant response rating,barnyardgrass [2]; [4],50
same,"Plant response rating, Barnyardgrass","barnyardgrass [2]; Preemergence, 500 g ai/ha",80
CC(C)c1cc[n+]([O-])c(S(=O)(=O)Cc2c(C(F)(F)F)nn(C)c2OC(F)F)c1 [Compound 110],"Plant response rating, Morningglory","morningglory; Postemergence, 125 g ai/ha",40
same,Morningglory plant response rating,morningglory; [3],100
same,Morningglory plant response rating,morningglory; [4],60
same,Morningglory plant response rating,morningglory; [9],100
same,"Plant response rating, Rice",rice; [5],0
same,"Plant response rating, Rice",rice; [10],0
same,"Plant response rating, Rice",rice; [7],0
same,"Plant response rating, Rice",rice; [8],0
same,"Plant response rating, Crabgrass, Large","crabgrass; Postemergence, 125 g ai/ha",70
same,"Crabgrass, Large plant response rating",crabgrass; [3],90
same,"Crabgrass, Large plant response rating",crabgrass; [4],50
same,"Crabgrass, Large plant response rating",crabgrass; [9],100
same,"Plant response rating, Corn","corn; Postemergence, 125 g ai/ha",0
same,Corn plant response rating,corn; [3],60
same,Corn plant response rating,corn; [4],0
same,Corn plant response rating,corn; [9],60
same,"Plant response rating, Velvetleaf","velvetleaf; Postemergence, 125 g ai/ha",60
same,Velvetleaf plant response rating,velvetleaf; [3],80
same,Velvetleaf plant response rating,velvetleaf; [4],50
same,Velvetleaf plant response rating,velvetleaf; [9],100
same,"Plant response rating, Ducksalad",duck salad; [5],0
same,"Plant response rating, Ducksalad",duck salad; [10],0
same,"Plant response rating, Ducksalad",duck salad; [7],50
same,"Plant response rating, Ducksalad",duck salad; [8],75
same,"Plant response rating, Barnyardgrass",barnyardgrass [1]; [5],0
same,"Plant response rating, Barnyardgrass",barnyardgrass [1]; [10],0
same,"Plant response rating, Barnyardgrass",barnyardgrass [1]; [7],0
same,"Plant response rating, Barnyardgrass",barnyardgrass [1]; [8],0
same,"Plant response rating, Foxtail, Giant","giant foxtail; Postemergence, 125 g ai/ha",80
same,"Foxtail, Giant plant response rating",giant foxtail; [3],90
same,"Foxtail, Giant plant response rating",giant foxtail; [4],80
same,"Foxtail, Giant plant response rating",giant foxtail; [9],100
same,"Plant response rating, Pigweed","redroot pigweed; Postemergence, 125 g ai/ha",70
same,Pigweed plant response rating,redroot pigweed; [3],80
same,Pigweed plant response rating,redroot pigweed; [4],80
same,Pigweed plant response rating,redroot pigweed; [9],100
same,"Plant response rating, Sedge, Umbrella",umbrella sedge; [5],0
same,"Plant response rating, Sedge, Umbrella",umbrella sedge; [10],0
same,"Plant response rating, Sedge, Umbrella",umbrella sedge; [7],0
same,"Plant response rating, Sedge, Umbrella",umbrella sedge; [8],30
same,"Plant response rating, Wheat","wheat; Postemergence, 125 g ai/ha",20
same,Wheat plant response rating,wheat; [3],60
same,Wheat plant response rating,wheat; [4],30
same,Wheat plant response rating,wheat; [9],70
same,"Plant response rating, Barnyardgrass","barnyardgrass [2]; Postemergence, 125 g ai/ha",60
same,Barnyardgrass plant response rating,barnyardgrass [2]; [3],80
same,Barnyardgrass plant response rating,barnyardgrass [2]; [4],90
same,Barnyardgrass plant response rating,barnyardgrass [2]; [9],100
